# Test results from ChEMBL document CHEMBL3885881, “DrugMatrix”.
# Species: Rattus norvegicus
# Assay: DrugMatrix - Regimen: Daily Repeat
# Type: toxicity, organism-based, Sprague-Dawley
# Parameters: regimen Daily Repeat, gender Male, age 6-8 weeks
# Settings: in vivo, po, 3 mg/kg, route oral GAVAGE, dose level Low, vehicle 100 % WATER; for ABSOLUTE BASOPHIL / ABSOLUTE EOSINOPHIL / ABSOLUTE LYMPHOCYTE / ABSOLUTE MONOCYTE / ABSOLUTE SEGMENTED NEUTROPHIL / BASOPHIL / EOSINOPHIL / ERYTHROCYTE COUNT / HEMATOCRIT / HEMOGLOBIN / LEUKOCYTE COUNT / LYMPHOCYTE / MEAN CORPUSCULAR HEMOGLOBIN / MEAN CORPUSCULAR HEMOGLOBIN CONCENTRATION / MONOCYTE / NEUTROPHIL / NUCLEATED RED BLOOD CELLS / PLATELET COUNT: tissue Blood; for ALANINE AMINOTRANSFERASE / ALBUMIN / ALKALINE PHOSPHATASE / ASPARTATE AMINOTRANSFERASE / BLOOD UREA NITROGEN / CARBON DIOXIDE / CHLORIDE / CHOLESTEROL / CREATINE PHOSPHOKINASE / CREATININE / GLUCOSE / LACTATE DEHYDROGENASE / LIPASE / PHOSPHORUS / SODIUM / TOTAL BILIRUBIN / TOTAL PROTEIN / URIC ACID: tissue Plasma
smiles,measurement,setting,value
COc1cc2nc(N3CCN(C(=O)C4CCCO4)CC3)nc(N)c2cc1OC (configuration not stated) [TERAZOSIN],ABSOLUTE BASOPHIL,"72 h, time 3 day",0 CELLS/uL
same,ABSOLUTE EOSINOPHIL,"72 h, time 3 day",53.33 CELLS/uL
same,ABSOLUTE LYMPHOCYTE,"72 h, time 3 day",7633 CELLS/uL
same,ABSOLUTE MONOCYTE,"72 h, time 3 day",36.67 CELLS/uL
same,ABSOLUTE SEGMENTED NEUTROPHIL,"72 h, time 3 day",977 CELLS/uL
same,BASOPHIL,"72 h, time 3 day",0%
same,EOSINOPHIL,"72 h, time 3 day",0.67%
same,ERYTHROCYTE COUNT,"72 h, time 3 day",4.99 x10E6/uL
same,HEMATOCRIT,"72 h, time 3 day",32.2%
same,HEMOGLOBIN,"72 h, time 3 day",12.87 G/DL
same,LEUKOCYTE COUNT,"72 h, time 3 day",8.7 x10E3/uL
same,LYMPHOCYTE,"72 h, time 3 day",88%
same,MEAN CORPUSCULAR HEMOGLOBIN,"72 h, time 3 day",25.87 pg
same,MEAN CORPUSCULAR HEMOGLOBIN CONCENTRATION,"72 h, time 3 day",40 G/DL
same,MONOCYTE,"72 h, time 3 day",0.33%
same,NEUTROPHIL,"72 h, time 3 day",11%
same,NUCLEATED RED BLOOD CELLS,"72 h, time 3 day",0 /100WBC
same,PLATELET COUNT,"72 h, time 3 day",1053.33 x10E3/uL
same,ALANINE AMINOTRANSFERASE,"72 h, time 3 day",63.67 u/L
same,ALBUMIN,"72 h, time 3 day",4.27 G/DL
same,ALKALINE PHOSPHATASE,"72 h, time 3 day",367.67 u/L
same,ASPARTATE AMINOTRANSFERASE,"72 h, time 3 day",102.33 u/L
same,BLOOD UREA NITROGEN,"72 h, time 3 day",16.67 mg/dL
same,CARBON DIOXIDE,"72 h, time 3 day",32.67 mmol/L
same,CHLORIDE,"72 h, time 3 day",103.33 MEQ/L
same,CHOLESTEROL,"72 h, time 3 day",74 mg/dL
same,CREATINE PHOSPHOKINASE,"72 h, time 3 day",321.67 u/L
same,CREATININE,"72 h, time 3 day",0.24 mg/dL
same,GLUCOSE,"72 h, time 3 day",155 mg/dL
same,LACTATE DEHYDROGENASE,"72 h, time 3 day",197.67 u/L
same,LIPASE,"72 h, time 3 day",8.33 u/L
same,PHOSPHORUS,"72 h, time 3 day",12.7 mg/dL
same,SODIUM,"72 h, time 3 day",145.9 MEQ/L
same,TOTAL BILIRUBIN,"72 h, time 3 day",0.13 mg/dL
same,TOTAL PROTEIN,"72 h, time 3 day",5.97 G/DL
same,URIC ACID,"72 h, time 3 day",1.27 mg/dL
same,ABSOLUTE BASOPHIL,"120 h, time 5 day",0 CELLS/uL
same,ABSOLUTE EOSINOPHIL,"120 h, time 5 day",0 CELLS/uL
same,ABSOLUTE LYMPHOCYTE,"120 h, time 5 day",9705.67 CELLS/uL
same,ABSOLUTE MONOCYTE,"120 h, time 5 day",145.67 CELLS/uL
same,ABSOLUTE SEGMENTED NEUTROPHIL,"120 h, time 5 day",882 CELLS/uL
same,BASOPHIL,"120 h, time 5 day",0%
same,EOSINOPHIL,"120 h, time 5 day",0%
same,ERYTHROCYTE COUNT,"120 h, time 5 day",5.4 x10E6/uL
same,HEMATOCRIT,"120 h, time 5 day",35.9%
same,HEMOGLOBIN,"120 h, time 5 day",13.87 G/DL
same,LEUKOCYTE COUNT,"120 h, time 5 day",10.73 x10E3/uL
same,LYMPHOCYTE,"120 h, time 5 day",90.33%
same,MEAN CORPUSCULAR HEMOGLOBIN,"120 h, time 5 day",25.7 pg
same,MEAN CORPUSCULAR HEMOGLOBIN CONCENTRATION,"120 h, time 5 day",38.67 G/DL
same,MONOCYTE,"120 h, time 5 day",1.33%
same,NEUTROPHIL,"120 h, time 5 day",8.33%
same,NUCLEATED RED BLOOD CELLS,"120 h, time 5 day",0 /100WBC
same,PLATELET COUNT,"120 h, time 5 day",1076.33 x10E3/uL
same,ALANINE AMINOTRANSFERASE,"120 h, time 5 day",56.67 u/L
same,ALBUMIN,"120 h, time 5 day",4.27 G/DL
same,ALKALINE PHOSPHATASE,"120 h, time 5 day",361.33 u/L
same,ASPARTATE AMINOTRANSFERASE,"120 h, time 5 day",85.33 u/L
same,BLOOD UREA NITROGEN,"120 h, time 5 day",20.67 mg/dL
same,CARBON DIOXIDE,"120 h, time 5 day",30 mmol/L
same,CHLORIDE,"120 h, time 5 day",102.67 MEQ/L
same,CHOLESTEROL,"120 h, time 5 day",75.33 mg/dL
same,CREATINE PHOSPHOKINASE,"120 h, time 5 day",197.33 u/L
same,CREATININE,"120 h, time 5 day",0.24 mg/dL
same,GLUCOSE,"120 h, time 5 day",172 mg/dL
same,LACTATE DEHYDROGENASE,"120 h, time 5 day",141.67 u/L
same,LIPASE,"120 h, time 5 day",11.33 u/L
same,PHOSPHORUS,"120 h, time 5 day",13.7 mg/dL
same,SODIUM,"120 h, time 5 day",146.17 MEQ/L
same,TOTAL BILIRUBIN,"120 h, time 5 day",0.2 mg/dL
same,TOTAL PROTEIN,"120 h, time 5 day",5.9 G/DL
same,URIC ACID,"120 h, time 5 day",1.7 mg/dL
